# Patent US20230137849A1, “USE OF A COMPOUND OF THE DIURETICS CLASS FOR TREATING CANCER” (AZELEAD, priority 2017, published 2023)
# Read-outs that look alike come from different tables or passages of the source.
# Key:
# 4T1 cells = type: cell-based, mouse; conditions: FIG. 8
# Protocol: The cytotoxicity tests are carried out in cell culture in 96-well plates, on the 4T1 cell line. The cells are maintained in a DMEM culture medium supplemented with 10% fetal calf serum (control condition) or placed in the presence of an MTT solution (3-(4,5-dimethylthiazol-2-yl)-2,5-diphenyl tetrazolium bromide) at 1 mg/ml in DMEM medium supplemented with 10% fetal calf serum (100 μl per well). The cells are incubated at 37° C. and 5% CO2 for 4 hours. The reaction is stopped by the addition of 100 μl of a solution containing 10% of SDS and 0.01 M of HCl. The cells are placed in an incubator at 37° C. and 5% CO2 for 2 hours. The absorbance is measured between 570 and 590 nm. The negative control is performed on a well without cells, containing 200 μl of a 1 mg/ml solution of MTT diluted in DMEM culture medium supplemented with 10% fetal calf serum. The average of the measurements obtained is compared with the control wells: (average value of the compounds treated/average value of the controls)*100=% of the average value.
# The 4T1 cells are derived from tumors of the mammary gland in mice.
# In order to study the cytotoxic effects of althiazide in vitro, we analyze the cell death induced by treatment with althiazide by tetrazolium salt labeling MTT (3-(4,5-dimethylthiazol-2-yl)-2,5-diphenyltetrazolium bromide) on 4T1 cells. The amount of living cells in the well is assayed by spectrometry. The results are compared with those obtained after treatment with the control solution (FIG. 8). In this test, we observe a very low mortality of cells after treatment with althiazide (80% of living cells at the highest dose 100 μM). Cells treated with dasatinib have a much higher mortality rate, at much lower doses (80% live cells at the lowest 10 nM dose and 20% live cells at 100 μM).
# zebrafish embryo = conditions: in vivo
# Protocol: The toxicity study is carried out over 72 hours. The embryos are treated at 25 hpf with the doses used for the test of chemical compounds of each of the compounds, in a 96-well plate, in a final volume of 100 μl of the embryonic growth medium. The embryos are incubated 72 h at 28° C. The medium is changed every 24 hours. The survival rate of embryos and the appearance of developmental defects are analyzed daily.
# At the same time, we analyzed the toxicity of althiazide after balancing with a solution containing althiazide at concentrations of 1 μM, 10 μM, 100 μM, 1000 μM for 24, 48 and 72 hours. The toxicity study was based on analysis of the percentage viability of the embryos after treatment. At concentrations of 1 μM, 10 μM and 100 μM, althiazide causes no toxicity even after 72 hours of treatment. A 50% toxicity is observed after treatment for 24 hours, the althiazide at the concentration of 1 mM.
structure (smiles),measurement,setting,value
Cc1nc(Nc2ncc(C(=O)Nc3c(C)cccc3Cl)s2)cc(N2CCN(CCO)CC2)n1 [dasatinib],living cells (MTT),4T1 cells; highest dose 100 μM,20%
same,living cells (MTT),4T1 cells; lowest dose 10 nM,80%
same,toxicity on the embryo in comparison with althiazide doses,zebrafish embryo,very high toxicity
